Each structure is given as a SMILES string.

This is an account of results in the RepoRT retention time repository.

A short description of the data set: HILIC, Waters ACQUITY UPLC BEH Amide, 100 × 2.1 mm, 1.7 µm; A: water + 0.125% formic acid + 10 mM ammonium formate; B: 5% water + 95% acetonitrile + 0.125% formic acid + 10 mM ammonium formate; gradient (min/%B) 0/100 2/100 7.7/70 9.5/40 10.25/30 12.75/100 17/100. To be noted: stereoisomer not certain.
Regarding `CNC(Cc1cnc[nH]1)C(=O)O` (configuration not stated) [N-Methylhistidine], the LC retention time was 9.47 min. For `O=P(O)(O)OC1OC(CO)C(O)C(O)C1O` (configuration not stated) [Glucose-1-phosphate], the LC retention time was found to be 9.61 min. Then `CCC(C)C(NC(=O)CN)C(=O)O` (configuration not stated) [Gly-Ile], with 7.67 min; and `CC(N)C(=O)NC(C)C(=O)O` (configuration not stated) [Ala-Ala], with 8.41 min; and `CCCCN1CCCC1CNC(=O)c1cc(C#N)c2ccccc2c1OC` (configuration not stated) [Nafadotride], with 2.05 min. Consider `NCCc1c[nH]c2ccccc12` [Tryptamine], for which the LC retention time is 6.92 min.

`CN(C)C(N)=NCCCC(N)C(=O)O` (configuration not stated) [ADMA]: the LC retention time turned out to be 8.55 min. The value for `COc1cc(-c2oc3cc(O)cc(O)c3c(=O)c2OC2OC(CO)C(O)C(O)C2O)ccc1O` (configuration not stated) [Isorhamnetin-3-glucoside] was 4.49 min. As to `CC(=O)NCCCC(=O)O` [4-Acetamidobutyric acid], the LC retention time worked out at 2.26 min. In the case of `COc1cc2nc(N3CCN(C(=O)c4ccco4)CC3)nc(N)c2cc1OC` [Prazosin], the LC retention time was found to be 3.75 min.

As to `CNCCC(Oc1ccccc1C)c1ccccc1` (configuration not stated) [Atomoxetine], the LC retention time was 2.42 min.

Consider `CCc1nn(CCCN2CCN(c3cccc(Cl)c3)CC2)c(=O)n1CCOc1ccccc1` [Nefazodone], for which the LC retention time turned out to be 1.88 min.

`CC1CCN(CCCC(=O)c2ccc(F)cc2)CC1` [Melperone]: the LC retention time amounted to 2.12 min. Then `CC12CCC3C4CCC(=O)C=C4CCC3C1CCC2O` (configuration not stated) [Nandrolone], with 1.06 min; and `CSCCC(NC=O)C(=O)O` (configuration not stated) [N-Formylmethionine], with 3.93 min; and `Nc1nc(Cl)nc2c1ncn2C1OC(CO)C(O)C1O` (configuration not stated) [2-Chloroadenosine], with 2.69 min.

With `CNCCCC12CCC(c3ccccc31)c1ccccc12` [Maprotiline], the LC retention time is 2.66 min. Regarding `CCN(C(C)=O)c1cccc(-c2ccnc3c(C#N)cnn23)c1` [Zaleplon], the LC retention time stood at 1.02 min.

For the molecule `O=c1ccn(C2OC(COP(=O)(O)O)C(O)C2O)c(=O)[nH]1` (configuration not stated) [Uridine 5'-monophosphate], the LC retention time turned out to be 8.97 min. Then `CCCCCCCCCCCC(CC1OC(=O)C1CCCCCC)OC(=O)C(CC(C)C)NC=O` (configuration not stated) [Orlistat], with 0.89 min. The value for `C=Cc1ccccc1` [Styrene] was 8.74 min. On to `CCOc1cc(CC(=O)NC(CC(C)C)c2ccccc2N2CCCCC2)ccc1C(=O)O` (configuration not stated) [Repaglinide], for which the LC retention time amounted to 1.01 min. Then `Nc1nc2c(c(=O)[nH]1)N(C=O)C(CNc1ccc(C(=O)NC(CCC(=O)O)C(=O)O)cc1)CN2` (configuration not stated) [Folinic acid], with 7.92 min; and `CCOC(=O)OC(C)OC1=C(C(=O)Nc2ccccn2)N(C)S(=O)(=O)c2ccccc21` (configuration not stated) [Ampiroxicam], with 0.95 min; and `C[N+](C)(C)CCO` [Choline [M]+], with 5.18 min. Then `C[N+](C)(C)CCCCC(N)C(=O)[O-]` (configuration not stated) [NEPSILON,NEPSILON,NEPSILON-TRIMETHYLLYSINE], with 9.29 min; and `COC1C=COC2(C)Oc3c(C)c(O)c4c(O)c(c5c(nc6cc(C)ccn65)c4c3C2=O)NC(=O)C(C)=CC=CC(C)C(O)C(C)C(O)C(C)C(OC(C)=O)C1C` (configuration not stated) [Rifaximin], with 1.18 min; and `c1ccc2c(c1)Cc1ccccc1-2` [Fluorene], with 6.66 min.

For the molecule `CCN(CC)CC(=O)Nc1c(C)cccc1C` [Lidocaine], the LC retention time came to 1.97 min. For `CN(C)CCc1c[nH]c2ccc(CC3COC(=O)N3)cc12` (configuration not stated) [Zolmitriptan], the LC retention time came to 4.8 min.

On to `NC(=O)NC(NC(N)=O)C(=O)O` [Allantoic acid], for which the LC retention time came out at 8.56 min. The value for `Cn1c(=O)c2[nH]cnc2n(C)c1=O` [Theophylline] was 1.54 min; that for `CN1CCc2cc(Cl)c(O)cc2C(c2ccccc2)C1` (configuration not stated) [UNII-UGT5535REQ] was 2.89 min; that for `O=C1N(c2ccccc2)c2ccccc2C1(Cc1ccncc1)Cc1ccncc1` [Linopirdine] was 1.17 min.

For the molecule `c1cncc(C2CCCN2)c1` (configuration not stated) [Nornicotine], the LC retention time came to 5.98 min. As for `CC(C)CC(O)C(=O)O` (configuration not stated) [2-Hydroxy-4-methylpentanoic acid], the LC retention time stood at 1.57 min. The value for `CC12CCC3C(CCC4CC(O)CCC43C)C1CCC2=O` (configuration not stated) [Androsterone] was 4.62 min. In the case of `O=c1c(-c2ccccc2)c1-c1ccccc1` [Diphenylcyclopropenone], the LC retention time is 1.01 min. In the case of `Cn1cc(CC(N)C(=O)O)c2ccccc21` (configuration not stated) [1-Methyltryptophan], the LC retention time came to 6.38 min.

On to `CN1CCN(CCCN2c3ccccc3Sc3ccc(C(F)(F)F)cc32)CC1` [Trifluoperazine], for which the LC retention time is 2.15 min. Then `COc1cc(C2c3cc4c(cc3C(OC3OC5COC(C)OC5C(O)C3O)C3COC(=O)C23)OCO4)cc(OC)c1O` (configuration not stated) [Etoposide], with 1.3 min. Then `O=c1[nH]cnc2nc[nH]c12` [Hypoxanthine], with 4.99 min; and `Cc1sc(N)c(C(=O)c2cccc(C(F)(F)F)c2)c1C`, with 0.94 min. With `CC(=O)OC1CC2CCC3C(CCC4(C)C3CC([N+]3(C)CCCCC3)C4OC(C)=O)C2(C)CC1N1CCCCC1` (configuration not stated) [Vercuronium], the LC retention time worked out at 5.53 min. Take `Cc1ncc([N+](=O)[O-])n1CC(O)CCl` (configuration not stated) [Ornidazole]: the LC retention time turned out to be 1.08 min. In the case of `O=C1CCc2ccc(OCCCCN3CCN(c4cccc(Cl)c4Cl)CC3)cc2N1` [Aripiprazole], the LC retention time came out at 3.14 min. On to `CC(=O)C1(O)CCC2C3CC(C)C4=CC(=O)CCC4(C)C3CCC21C` (configuration not stated) [Medroxyprogesterone], for which the LC retention time amounted to 1.01 min. Then `Nc1nc2c(ncn2C2OC3COP(=O)(O)OC3C2O)c(=O)[nH]1` (configuration not stated) [Guanosine-3',5'-cyclic monophosphate], with 8.39 min; and `Cn1c(=O)[nH]c2[nH]c(=O)[nH]c2c1=O` [1-Methyluric acid], with 2.18 min.

In the case of `COc1ccc2c(c1)c(CC(=O)O)c(C)n2C(=O)c1ccc(Cl)cc1` [Indomethacin], the LC retention time turned out to be 1.08 min. As to `OCC(O)C(O)CO` (configuration not stated) [Threitol], the LC retention time is 1.56 min. On to `O=C(O)C1CC(O)CN1` (configuration not stated) [Hydroxyproline], for which the LC retention time was 8.14 min. Consider `CN(C)CCOC(C)(c1ccccc1)c1ccccn1` (configuration not stated) [Doxylamine], for which the LC retention time was determined as 2.45 min. With `CC(C)(C)NCC(O)c1ccc(O)c(CO)c1` (configuration not stated) [Albuterol], the LC retention time was 5.55 min. As to `Nc1ncnc2nc[nH]c12` [Adenine], the LC retention time amounted to 4.71 min. The value for `O=C(O)CCC(O)C(=O)O` (configuration not stated) [2-Hydroxyglutaric acid] was 0.91 min.

As to `O=C(O)C1CSCN1` (configuration not stated) [Thiazolidine-4-carboxylic acid], the LC retention time is 6.92 min. The value for `NC(=O)Cc1c[nH]c2ccccc12` [Indole-3-acetamide] was 1.36 min; that for `O=C1CCCC(=O)C1` [1,3 Cyclohexanedione] was 1.47 min; that for `CCCCc1oc2ccccc2c1C(=O)c1cc(I)c(OCCN(CC)CC)c(I)c1` [Amiodarone] was 1.87 min. In the case of `CCCCCCCCCCCCCCCCC(=O)O` [Heptadecanoic acid], the LC retention time stood at 3.01 min. For the molecule `Nc1ccn(C2CCC(CO)O2)c(=O)n1` (configuration not stated) [2,3-Dideoxycytidine], the LC retention time was 4.54 min. Then `NC(=O)NCCC(=O)O` [3-Ureidopropionic acid], with 5.6 min. As for `COc1ccc2c(c1)C13CCCCC1C(C2)N(C)CC3` (configuration not stated) [Dextromethorphan], the LC retention time is 2.64 min. As to `CN1CCCC1c1cccnc1` (configuration not stated) [Nicotine], the LC retention time worked out at 5.34 min. As for `CCC(COC(=O)c1cc(OC)c(OC)c(OC)c1)(c1ccccc1)N(C)C` (configuration not stated) [Trimebutine], the LC retention time was determined as 1.47 min.

On to `O=P(O)(O)OCC1OC(OC2OC(CO)C(O)C(O)C2O)C(O)C(O)C1O` (configuration not stated) [Trehalose-6-phosphate], for which the LC retention time was 9.72 min. For the molecule `COc1ccc(C(=O)NCc2ccc(OCCN(C)C)cc2)cc1OC` [Itopride], the LC retention time turned out to be 3.65 min.

In the case of `NC(=O)c1ccccc1` [Benzamide], the LC retention time turned out to be 1.27 min. Then `NC(CCSSCCC(N)C(=O)O)C(=O)O` (configuration not stated) [Homocystine], with 9.58 min. With `O=C1CN=C(c2ccccn2)c2cc(Br)ccc2N1` [Bromazepam], the LC retention time amounted to 1.3 min. With `CSCCC(=O)C(=O)O` [alpha-Keto-gamma-(methylthio)butyric acid], the LC retention time is 0.92 min. Take `CNCCC(Oc1cccc2ccccc12)c1cccs1` (configuration not stated) [Duloxetine]: the LC retention time came to 2.6 min. For the molecule `NCCS(=O)(=O)O` [Taurine], the LC retention time was determined as 7.85 min. The value for `O=C(O)CCCCC1SCC2NC(=O)NC21` (configuration not stated) [Biotin] was 2.85 min; that for `CC(=O)NC(Cc1ccccc1)C(=O)O` (configuration not stated) [N-Acetylphenylalanine] was 2.61 min; that for `CC1=NS(=O)(=O)c2cc(Cl)ccc2N1` [Diazoxide] was 1.09 min.

Regarding `COc1cc(C=Cc2ccc(O)cc2)cc(OC)c1` [Pterostilbene], the LC retention time came out at 0.98 min. The value for `CNC(CCC(=O)O)C(=O)O` (configuration not stated) [N-Methylglutamic acid] was 8.32 min; that for `O=C(O)C1CCC(C(=O)O)CC1` (configuration not stated) [1,4-Cyclohexanedicarboxylic acid] was 1.56 min; that for `O=c1[nH]cnc2c1ncn2C1CCC(CO)O1` (configuration not stated) [2',3'-Dideoxyinosine] was 3.44 min. The value for `CCCCC1=NC2(CCCC2)C(=O)N1Cc1ccc(-c2ccccc2-c2nn[nH]n2)cc1` [Irbesartan] was 1.16 min.
